What was measured:
[1] = tested on: TRZAW Triticum aestivum (wheat); assay: Glasshouse weed kill, adjuvant with fluazifop-P-butyl, track sprayer; format: in vivo; conditions: adjuvant 0.2% v/v, 21 days after treatment; for Mean Activity (% weed kill) TRZAW: with fluazifop-p-butyl, mean of 3 replicates and 4 rates; for ED90 TRZAW (concentration required to provide 90% weed kill): fluazifop-p-butyl rate, 200 l/ha
Experimental: (§1) An agrochemical composition was prepared containing 0.2% v/v of an adjuvant in a track sprayer containing fluazifop P butyl emulsified at one of four different concentrations. Weeds which had been grown to the 2.3 leaf stage were sprayed using volumes of 200 l/ha. Each sample was replicated three times. The following weed species were tested:— • AVEFA Avena fatua (wild oats) • LOLRI Lolium rigidum (rye grass) • TRZAW Triticum aestivum (wheat) • SETVI Setaria viridis (green foxtails)
(§2) Activity was measured 21 days after treatment and was compared with a standard composition containing only fluazifop-p-butyl. The concentration required to provide 90% weed kill was calculated and is given in TABLE 1 below together with the mean ED90 across the species.
(§3) Further adjuvants of the present invention were tested for activity in combination with fluzifop-p-butyl. Activity (% weed kill) was measured 21 days after treatment and is given as a mean of 3 replicates and 4 rates of fluazifop-p-butyl. All adjuvants were applied at 0.2% v/v. The results are given in Table 2 in comparison with a corresponding composition containing no adjuvant.

[2] = tested on: SETVI Setaria viridis (green foxtails); assay: as above; format: in vivo; conditions: adjuvant 0.2% v/v, 21 days after treatment; for Mean Activity (% weed kill) SETVI: with fluazifop-p-butyl, mean of 3 replicates and 4 rates; for ED90 SETVI (concentration required to provide 90% weed kill): fluazifop-p-butyl rate, 200 l/ha
Experimental: as §1, §2, §3

[3] = tested on: LOLRI Lolium rigidum (rye grass); assay: as above; format: in vivo; conditions: adjuvant 0.2% v/v, 21 days after treatment; for Mean Activity (% weed kill) LOLRI: with fluazifop-p-butyl, mean of 3 replicates and 4 rates; for ED90 LOLRI (concentration required to provide 90% weed kill): fluazifop-p-butyl rate, 200 l/ha
Experimental: as §1, §2, §3

[4] = tested on: AVEFA Avena fatua (wild oats); assay: as above; format: in vivo; conditions: adjuvant 0.2% v/v, 21 days after treatment; for Mean Activity (% weed kill) AVEFA: with fluazifop-p-butyl, mean of 3 replicates and 4 rates; for ED90 AVEFA (concentration required to provide 90% weed kill): fluazifop-p-butyl rate, 200 l/ha
Experimental: as §1, §2, §3

[5] = tested on: AVEFA, LOLRI, TRZAW, SETVI; assay: Weed kill with fluazifop-P-butyl, mean across the species; format: in vivo; conditions: adjuvant 0.2% v/v, 21 days after treatment; for Mean Activity (% weed kill) Mean over all species: with fluazifop-p-butyl; for Mean ED90 across the species: fluazifop-p-butyl rate
Experimental: as §1, §2, §3

Puccinia recondita = assay: Glasshouse disease control with azoxystrobin on inoculated barley; format: in vivo; conditions: adjuvant 0.5% v/v tank mix, four replicates
Experimental: The results quoted are the mean percentage disease control from four replicates on barley inoculated with Puccinia recondita. The adjuvant was added as a 0.5% v/v tank mix.

AVEFA = assay: Adjuvant with thin leaved grass herbicide (oxadiazepine pivalate ester), track sprayer; format: in vivo, Avena fatua; conditions: 200 l/ha, average of two replicates
Experimental: (§4) The indicated adjuvants were evaluated in combination with a thin leaved grass herbicide 2,2,-dimethyl-propionic acid-8-(2,6-diethyl-4-methyl-phenyl)-9-oxo-1,2,4,5-tetrahydro-9H-pyrazolo[1,2-d][1,4,5]oxadiazepine-7-yl ester. The weeds were sprayed at the growth stages shown in the table with pesticide emulsions using a track sprayer and volumes of 200 l/ha. The adjuvants were added at 5% v/v as tank mix additives. Each result is the average of two replicates.

[6] = tested on: ALOMY, APESV, AVEFA, LOLMU, PHAPA; assay: Adjuvant with thin leaved grass herbicide, mean of all weeds; format: in vivo
Experimental: as §4

LOLMU = assay: Adjuvant with thin leaved grass herbicide (oxadiazepine pivalate ester), track sprayer; format: in vivo; conditions: 200 l/ha, average of two replicates
Experimental: as §4

[7] = tested on: APESV (Apera Spica-Venti); assay: as above; format: in vivo; conditions: 200 l/ha, average of two replicates
Experimental: as §4

ALOMY = assay: as above; format: in vivo; conditions: 200 l/ha, average of two replicates
Experimental: as §4

[8] = tested on: PHAPA (Phalaris paradoxa); assay: as above; format: in vivo; conditions: 200 l/ha, average of two replicates
Experimental: as §4

Substance	Mean Activity (% weed kill) TRZAW [1] [%]	Mean Activity (% weed kill) SETVI [2] [%]	Mean Activity (% weed kill) LOLRI [3] [%]	Mean Activity (% weed kill) AVEFA [4] [%]	Mean Activity (% weed kill) Mean over all species [5] [%]	ED90 TRZAW (concentration required to provide 90% weed kill) [1] [g/ha]	ED90 SETVI (concentration required to provide 90% weed kill) [2] [g/ha]	ED90 LOLRI (concentration required to provide 90% weed kill) [3] [g/ha]	ED90 AVEFA (concentration required to provide 90% weed kill) [4] [g/ha]	Mean ED90 across the species [5] [g/ha]	other results
Isostearyl (2-hexyl-dodecan-1-ol) 10 Propylene Oxide [Isostearyl 10 PO]	53.8	81.8	51.8	67.8	64	–	–	–	–	–	–
Oleyl 20 Ethylene Oxide End-Capped Butyl Ether [Oleyl 20E Bu Ether]	59.3	78.1	68.8	76.1	71	21.4	16.5	27.5	19.5	21.2	mean percentage disease control (Puccinia recondita; Azoxystrobin 0 mgai/l): 5.9%; mean percentage disease control (Puccinia recondita; Azoxystrobin 0.625 mgai/l (Quadris 25 SC)): 66.5%; mean percentage disease control (Puccinia recondita; Azoxystrobin 1.25 mgai/l (Quadris 25 SC)): 82.7%; mean percentage disease control (Puccinia recondita; Azoxystrobin 2.5 mgai/l (Quadris 25 SC)): 90.5%
Oleyl 10 Propylene Oxide End-Capped butyl ether [Oleyl 10P Bu Ether]	45.8	84.2	54.4	71.4	64	29.2	16.7	34.9	19.8	25.2	–
Isostearyl (2-hexyl-dodecan-1-ol) 20 Propylene Oxide [Isostearyl 20 PO]	37.3	80.9	52.5	58	57	–	–	–	–	–	–
Oleic Acid 10 Ethylene Oxide End-Capped Methyl Ether [Oleic 10E Me Ether]	56.1	78.4	56.2	71.3	66	28.4	15.8	34.8	16.7	23.9	–
Oleyl 10 Ethylene Oxide End-Capped Butyl Ether [Oleyl 10 EO Bu ether]	56	85.6	56.5	73.3	68	–	–	–	–	–	AVEFA activity (AVEFA; herbicide rate 5 gai/ha): 89; AVEFA activity (AVEFA; herbicide rate 7.5 gai/ha): 98; AVEFA activity (AVEFA; herbicide rate 10 gai/ha): 99; Mean All Weeds ([6]; herbicide rate 5 gai/ha): 76; Mean All Weeds ([6]; herbicide rate 7.5 gai/ha): 93; Mean All Weeds ([6]; herbicide rate 10 gai/ha): 95; LOLMU activity (LOLMU; herbicide rate 5 gai/ha): 91; LOLMU activity (LOLMU; herbicide rate 7.5 gai/ha): 98; LOLMU activity (LOLMU; herbicide rate 10 gai/ha): 93; APESV activity ([7]; herbicide rate 5 gai/ha): 53; APESV activity ([7]; herbicide rate 7.5 gai/ha): 97; APESV activity ([7]; herbicide rate 10 gai/ha): 98; ALOMY activity (ALOMY; herbicide rate 5 gai/ha): 53; ALOMY activity (ALOMY; herbicide rate 7.5 gai/ha): 75; ALOMY activity (ALOMY; herbicide rate 10 gai/ha): 88; PHAPA activity ([8]; herbicide rate 5 gai/ha): 93; PHAPA activity ([8]; herbicide rate 7.5 gai/ha): 96; PHAPA activity ([8]; herbicide rate 10 gai/ha): 99
Oleyl 20 Propylene Oxide [Oleyl 20 PO]	53.3	80.4	36.3	70.6	60	–	–	–	–	–	–
Oleic Acid 20 Ethylene Oxide End-Capped Methyl Ether [Oleyl 20 EO Me ether]	52.1	74.6	54.9	72.3	63	–	–	–	–	–	–
Oleyl 10 Propylene Oxide [Oleyl 10PO]	54.3	84.6	55.9	72.6	67	–	–	–	–	–	AVEFA activity (AVEFA; herbicide rate 5 gai/ha): 70; AVEFA activity (AVEFA; herbicide rate 7.5 gai/ha): 96; AVEFA activity (AVEFA; herbicide rate 10 gai/ha): 98; Mean All Weeds ([6]; herbicide rate 5 gai/ha): 41; Mean All Weeds ([6]; herbicide rate 7.5 gai/ha): 83; Mean All Weeds ([6]; herbicide rate 10 gai/ha): 93; LOLMU activity (LOLMU; herbicide rate 5 gai/ha): 33; LOLMU activity (LOLMU; herbicide rate 7.5 gai/ha): 60; LOLMU activity (LOLMU; herbicide rate 10 gai/ha): 80; APESV activity ([7]; herbicide rate 5 gai/ha): 23; APESV activity ([7]; herbicide rate 7.5 gai/ha): 89; APESV activity ([7]; herbicide rate 10 gai/ha): 98; ALOMY activity (ALOMY; herbicide rate 5 gai/ha): 55; ALOMY activity (ALOMY; herbicide rate 7.5 gai/ha): 70; ALOMY activity (ALOMY; herbicide rate 10 gai/ha): 92; PHAPA activity ([8]; herbicide rate 5 gai/ha): 23; PHAPA activity ([8]; herbicide rate 7.5 gai/ha): 98; PHAPA activity ([8]; herbicide rate 10 gai/ha): 99
Oleyl 20 Propylene Oxide End-Capped butyl ether [Oleyl 20P Bu Ether]	38.8	75.9	46	67.4	57	32.2	19	48.6	23.4	30.8	–

From patent publication US7722892B2, “Compounds” (Syngenta Crop Protection, Inc., priority 2001, dated 2010)
